Measurements published in PubChem BioAssay AID1963974 (Molecular Pharmacology Branch, DTP, NCI, 2024).

Test system: 648629-189-R-J1-PDC spheroids with HUVEC/MSC, viability
Assay: Anticancer human tumor 648629-189-R-J1-PDC patient-derived bladder carcinoma cell line growth inhibition [PI3K]
Settings: for IC50: curve of first compound; for viability, T/C: stronger effect = lower value
Method in brief: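 Tumor cells were combined with HUVEC and MSCs into spheroids, then dosed with PI3K-inhibitor combinations over half-log ranges capped near clinical Cmax or 10 microM.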

[1] = second compound 0.00316 µM, first compound 0.0316 µM
[2] = second compound 0.00316 µM, first compound 0.1 µM
[3] = second compound 0.00316 µM, first compound 0.316 µM
[4] = second compound 0.00316 µM, first compound 1 µM
[5] = second compound 0.01 µM, first compound 0.0316 µM
[6] = second compound 0.01 µM, first compound 0.1 µM
[7] = second compound 0.01 µM, first compound 0.316 µM
[8] = second compound 0.01 µM, first compound 1 µM
[9] = second compound 0.0316 µM, first compound 0.0316 µM
[10] = second compound 0.0316 µM, first compound 0.1 µM
[11] = second compound 0.0316 µM, first compound 0.316 µM
[12] = second compound 0.0316 µM, first compound 1 µM
[13] = second compound 0.1 µM, first compound 0.0316 µM
[14] = second compound 0.1 µM, first compound 0.1 µM
[15] = second compound 0.1 µM, first compound 0.316 µM
[16] = second compound 0.1 µM, first compound 1 µM
[17] = second compound 0.316 µM, first compound 0.0316 µM
[18] = second compound 0.316 µM, first compound 0.1 µM
[19] = second compound 0.316 µM, first compound 0.316 µM
[20] = second compound 0.316 µM, first compound 1 µM
[21] = second compound 1 µM, first compound 0.0316 µM
[22] = second compound 1 µM, first compound 0.1 µM
[23] = second compound 1 µM, first compound 0.316 µM
[24] = second compound 1 µM, first compound 1 µM
[25] = second compound 0.0316 µM, first compound 3.16 µM
[26] = second compound 0.0316 µM, first compound 10 µM
[27] = second compound 0.1 µM, first compound 3.16 µM
[28] = second compound 0.1 µM, first compound 10 µM
[29] = second compound 0.316 µM, first compound 3.16 µM
[30] = second compound 0.316 µM, first compound 10 µM
[31] = second compound 1 µM, first compound 3.16 µM
[32] = second compound 1 µM, first compound 10 µM
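Note: spheroids exposed to agents for seven days before reading.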
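Throughout, for viability, T/C: percent of vehicle control luminescence where 100% = DMSO treated spheroids.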

CCN1CCN(Cc2ccc(Nc3ncc(F)c(-c4cc(F)c5nc(C)n(C(C)C)c5c4)n3)nc2)CC1 + CC(Nc1ccc2c(c1)OCCn1cc(N3C(=O)OCC3C(F)F)nc1-2)C(N)=O
IC50 (second compound 0.00316 µM): > 1000 nM | IC50 (second compound 0.01 µM): > 1000 nM | IC50 (second compound 0.0316 µM): > 1000 nM | IC50 (second compound 0.1 µM): > 1000 nM | IC50 (second compound 0.316 µM): > 1000 nM | IC50 (second compound 1 µM): > 1000 nM | viability, T/C (second compound 0.00316 µM, first compound 0.00316 µM): 105% | viability, T/C (second compound 0.00316 µM, first compound 0.01 µM): 98.8% | viability, T/C [1]: 105% | viability, T/C [2]: 113% | viability, T/C [3]: 118% | viability, T/C [4]: 119% | viability, T/C (second compound 0.01 µM, first compound 0.00316 µM): 95.5% | viability, T/C (second compound 0.01 µM, first compound 0.01 µM): 102% | viability, T/C [5]: 110% | viability, T/C [6]: 110% | viability, T/C [7]: 113% | viability, T/C [8]: 107% | viability, T/C (second compound 0.0316 µM, first compound 0.00316 µM): 105% | viability, T/C (second compound 0.0316 µM, first compound 0.01 µM): 99.2% | viability, T/C [9]: 112% | viability, T/C [10]: 95.8% | viability, T/C [11]: 121% | viability, T/C [12]: 124% | viability, T/C (second compound 0.1 µM, first compound 0.00316 µM): 96.4% | viability, T/C (second compound 0.1 µM, first compound 0.01 µM): 104% | viability, T/C [13]: 102% | viability, T/C [14]: 105% | viability, T/C [15]: 109% | viability, T/C [16]: 103% | viability, T/C (second compound 0.316 µM, first compound 0.00316 µM): 85.5% | viability, T/C (second compound 0.316 µM, first compound 0.01 µM): 82.6% | viability, T/C [17]: 99.9% | viability, T/C [18]: 98.6% | viability, T/C [19]: 90.7% | viability, T/C [20]: 96.9% | viability, T/C (second compound 1 µM, first compound 0.00316 µM): 70.8% | viability, T/C (second compound 1 µM, first compound 0.01 µM): 72.4% | viability, T/C [21]: 64.3% | viability, T/C [22]: 73.1% | viability, T/C [23]: 87.8% | viability, T/C [24]: 77.8%

Cn1ncc(Cl)c1-c1cc(C(=O)NC(CN)Cc2cccc(F)c2)sc1Cl (stereo unspecified) + COc1c(OCCCN2CCOCC2)ccc2c3n(c(=NC(=O)c4cnc(N)nc4)nc12)CCN3
IC50 (second compound 0.00316 µM): 620 nM | IC50 (second compound 0.01 µM): 639 nM | IC50 (second compound 0.0316 µM): 419 nM | IC50 (second compound 0.1 µM): 110 nM | IC50 (second compound 0.316 µM): < 31.6 nM | IC50 (second compound 1 µM): < 31.6 nM | viability, T/C [1]: 110% | viability, T/C [2]: 102% | viability, T/C [3]: 59.3% | viability, T/C [4]: 40.3% | viability, T/C (second compound 0.00316 µM, first compound 3.16 µM): 23.1% | viability, T/C (second compound 0.00316 µM, first compound 10 µM): 7.29% | viability, T/C [5]: 97.9% | viability, T/C [6]: 84% | viability, T/C [7]: 70.5% | viability, T/C [8]: 35.2% | viability, T/C (second compound 0.01 µM, first compound 3.16 µM): 22.1% | viability, T/C (second compound 0.01 µM, first compound 10 µM): 6.56% | viability, T/C [9]: 84.6% | viability, T/C [10]: 78.2% | viability, T/C [11]: 53.5% | viability, T/C [12]: 32.2% | viability, T/C [25]: 16.9% | viability, T/C [26]: 4.04% | viability, T/C [13]: 67.5% | viability, T/C [14]: 52.1% | viability, T/C [15]: 34% | viability, T/C [16]: 21.8% | viability, T/C [27]: 10.3% | viability, T/C [28]: 3.19% | viability, T/C [17]: 21.9% | viability, T/C [18]: 16.6% | viability, T/C [19]: 11.8% | viability, T/C [20]: 7.56% | viability, T/C [29]: 4.03% | viability, T/C [30]: 1.46% | viability, T/C [21]: 4.06% | viability, T/C [22]: 2.7% | viability, T/C [23]: 2.87% | viability, T/C [24]: 2.72% | viability, T/C [31]: 2.27% | viability, T/C [32]: 0.3%

CC(Cn1ccc(-c2ccc(C#N)c(Cl)c2)n1)NC(=O)c1cc(C(C)O)[nH]n1 (stereo unspecified) + CC(Nc1ncnc2nc[nH]c12)c1cc2cccc(Cl)c2c(=O)n1-c1ccccc1
IC50 (second compound 0.0316 µM): > 10000 nM | IC50 (second compound 0.1 µM): > 10000 nM | IC50 (second compound 0.316 µM): > 10000 nM | IC50 (second compound 1 µM): > 10000 nM | IC50 (second compound 3.16 µM): > 10000 nM | IC50 (second compound 10 µM): > 10000 nM | viability, T/C [9]: 99.4% | viability, T/C [10]: 91.1% | viability, T/C [11]: 116% | viability, T/C [12]: 94% | viability, T/C [25]: 105% | viability, T/C [26]: 84.5% | viability, T/C [13]: 99% | viability, T/C [14]: 89.3% | viability, T/C [15]: 115% | viability, T/C [16]: 108% | viability, T/C [27]: 108% | viability, T/C [28]: 80.5% | viability, T/C [17]: 97.9% | viability, T/C [18]: 99% | viability, T/C [19]: 95.2% | viability, T/C [20]: 119% | viability, T/C [29]: 99.4% | viability, T/C [30]: 87.3% | viability, T/C [21]: 107% | viability, T/C [22]: 93.8% | viability, T/C [23]: 106% | viability, T/C [24]: 113% | viability, T/C [31]: 90.8% | viability, T/C [32]: 80% | viability, T/C (second compound 3.16 µM, first compound 0.0316 µM): 92.2% | viability, T/C (second compound 3.16 µM, first compound 0.1 µM): 96% | viability, T/C (second compound 3.16 µM, first compound 0.316 µM): 94.7% | viability, T/C (second compound 3.16 µM, first compound 1 µM): 91.3% | viability, T/C (second compound 3.16 µM, first compound 3.16 µM): 92.4% | viability, T/C (second compound 3.16 µM, first compound 10 µM): 69.5% | viability, T/C (second compound 10 µM, first compound 0.0316 µM): 78.4% | viability, T/C (second compound 10 µM, first compound 0.1 µM): 93.3% | viability, T/C (second compound 10 µM, first compound 0.316 µM): 86.8% | viability, T/C (second compound 10 µM, first compound 1 µM): 79.7% | viability, T/C (second compound 10 µM, first compound 3.16 µM): 89.7% | viability, T/C (second compound 10 µM, first compound 10 µM): 69%
